One block for each compound: values may come before it.
Assays:
[1] = target: T1, PARP-1 arginine-34 mutant (R34G, Zn2+ finger 1) (Homo sapiens, UniProt P09874, R34G); test: Enzymatic activity of arginine-34 (R34G) mutant PARP-1 with ATP; format: biochemical; conditions: arginine-34 replaced by glycine in Zn2+ finger 1; 200 μM NAD+, 3 mM spermine, pH 7.3; FIG. 1
T1 construct: made in house; host or cells: Sf9 (baculovirus)
From the text: (§1) PARP-1 is purified from calf thymus as reported earlier (Molinet et al. (1993) EMBO J. 12:2109-2117). Alternatively recombinant PARP-1 is isolated from Sodoptera Fugiperda (Sf9) cells infected with recombinant baculovirus, expressing the human PARP-1 gene, constructed according to the instructions of Pharmingen. The cDNA of the amino acid exchange mutant R34G and R138 il of PARP-1 is created by the mega primer method (Kannann et al. (1989) Nucl Acids Res 17:5404). The mutated gene is cloned into the transfer vector pV 1392 and the recombinant virus is generated by the Baculogold technology of Pharmigen. The mutated proteins are expressed in Sf9 cells, purified and assayed as reported (Huang et al. (2004) Biochemistry 43:217-223; Kirsten et al. (2004) Methods in Molecular Biology 287, Epigenetics Protocols 137-149).
(§2) Assays are carried out as described (Kun et al. (2004) Biochemistry, 43:210-216) in triplicate (200 μM 3H labeled NAD+, 28 dpm/pmol, 0.5 pmol PARP-1, 3 mM spermine, pH 7.3 t=7.5 min). Identical results are obtained when ATP is replaced by its non-hydrolysable analog (Kun et al. (2004) Biochemistry, 43:210-216).

[2] = target: T2, PARP-1 activity of Jurkat cell nuclei (Homo sapiens, UniProt P09874); test: Effect of ATP on the PARP-1 activity of Jurkat cell nuclei; format: biochemical; conditions: 1 mM ATP; isolated Jurkat cell nuclei; FIG. 2
T2 construct: endogenous in cells; host or cells: Jurkat cell nuclei
Experimental: Poly(ADP-ribose)glycohydrolase (PARG) is purchased from Biomol or Alexis Co, which enzymes are equal in performance. Jurkat cells are cultured as reported (Buday et al. (1996) J Biol Chem 271:6159-6163) and nuclei are prepared by a published method (Smirnova et al. (2000) J Biol Chem 275:9377-9384). Enzymatic assays for PARP-1 are performed as published (deMurcia (2000) From DNA-damage and Stress Signalling to Cell Death: Poly ADP-ribosylation Reactions). PARG activity is analyzed with polyADP-ribosylated PARP-1 as substrate, containing long chains synthesized with spermine as cofactor (Kun et al. (2004) Biochemistry 43:210-216), or short chains where the cofactor is histone H1. The polyADP-ribose is labeled either with 3H or by biotinylated-NAD. PARG activity is quantitatively measured either by assaying the liberated 3H-ADP-ribose by TLC (Kirsten et al. (1991) Exp Cell Res 194:1-8) (chromatography carried out on PEI-cellulose sheets with 0.9 M acetic acid and 0.3 M LiCl as solvent) or by immunoassay of the remaining biotinylated (ADP-ribose)n (Bakondi et al. (2004) Exp Dermatol 13:170-178). All other reagents are of highest analytical purity. […] After separating the proteins on a 8% SDS-PAGE gel, the nitrocellulose-blotted, labeled proteins are detected by incubating with streptavidine-HPO complex (1 μg/ml) and by fluorography. Triplicate results are expressed as densitometric units.

[3] = target: T3, PARG activity of Jurkat cell nuclear extract (Homo sapiens, UniProt Q86W56); test: Effect of ATP on the glycohydrolase activity of Jurkat cell nuclear extract; format: biochemical; conditions: 8 mM ATP; polyADP-ribosylated PARP-1 with long polymers (50 ADP-ribose units); FIG. 4
T3 construct: endogenous in cells; host or cells: Jurkat cell nuclear extract
Experimental: Poly(ADP-ribose)glycohydrolase (PARG) is purchased from Biomol or Alexis Co, which enzymes are equal in performance. Jurkat cells are cultured as reported (Buday et al. (1996) J Biol Chem 271:6159-6163) and nuclei are prepared by a published method (Smirnova et al. (2000) J Biol Chem 275:9377-9384). Enzymatic assays for PARP-1 are performed as published (deMurcia (2000) From DNA-damage and Stress Signalling to Cell Death: Poly ADP-ribosylation Reactions). PARG activity is analyzed with polyADP-ribosylated PARP-1 as substrate, containing long chains synthesized with spermine as cofactor (Kun et al. (2004) Biochemistry 43:210-216), or short chains where the cofactor is histone H1. The polyADP-ribose is labeled either with 3H or by biotinylated-NAD. PARG activity is quantitatively measured either by assaying the liberated 3H-ADP-ribose by TLC (Kirsten et al. (1991) Exp Cell Res 194:1-8) (chromatography carried out on PEI-cellulose sheets with 0.9 M acetic acid and 0.3 M LiCl as solvent) or by immunoassay of the remaining biotinylated (ADP-ribose)n (Bakondi et al. (2004) Exp Dermatol 13:170-178). All other reagents are of highest analytical purity. Poly(ADP-ribosylated)-PARP-1 (2 μg protein is incubated with 50 μM of biotinylated-NAD as described above) and is attached to the walls of 96-well plates. ([…] et al. (1989) Nucl. Acids Res. 17:5404). […]

[4] = target: T2, PARP-1 activity of Jurkat cell nuclei; test: Effect of BCNU on the ATP sensitivity of PARP-1 activity of Jurkat cell nuclei; format: biochemical; conditions: nuclei pre-incubated with 400 nM BCNU for 30 minutes; FIG. 3
Experimental: Nuclei equivalent to 2×10^5 Jurkat cells are pre incubated in the presence of various concentrations of ATP. Then PARP activities are assayed by admixing biotinylated-NAD (5 μM final conc.) and incubating for ten minutes. After separating the proteins on a 8% SDS-PAGE gel, the nitrocellulose-blotted, labeled proteins are detected by incubating with streptavidine-HPO complex (1 μg/ml) and by fluorography. Triplicate results are expressed as densitometric units. Experiments in triplicate are carried out as described in FIG. 2, with the exception that pre incubation is done with 400 nM of BCNU for 30 minutes.

purified PARG = test: ATP sensitivity of purified PARG (PAR chain length, substrate concentration); format: biochemical; conditions: 45 minutes
Experimental: Poly(ADP-ribose)glycohydrolase (PARG) is purchased from Biomol or Alexis Co, which enzymes are equal in performance. Jurkat cells are cultured as reported (Buday et al. (1996) J Biol Chem 271:6159-6163) and nuclei are prepared by a published method (Smirnova et al. (2000) J Biol Chem 275:9377-9384). Enzymatic assays for PARP-1 are performed as published (deMurcia (2000) From DNA-damage and Stress Signalling to Cell Death: Poly ADP-ribosylation Reactions). PARG activity is analyzed with polyADP-ribosylated PARP-1 as substrate, containing long chains synthesized with spermine as cofactor (Kun et al. (2004) Biochemistry 43:210-216), or short chains where the cofactor is histone H1. The polyADP-ribose is labeled either with 3H or by biotinylated-NAD. PARG activity is quantitatively measured either by assaying the liberated 3H-ADP-ribose by TLC (Kirsten et al. (1991) Exp Cell Res 194:1-8) (chromatography carried out on PEI-cellulose sheets with 0.9 M acetic acid and 0.3 M LiCl as solvent) or by immunoassay of the remaining biotinylated (ADP-ribose)n (Bakondi et al. (2004) Exp Dermatol 13:170-178). All other reagents are of highest analytical purity. Short (Δ-Δ)- or long ([…]-[…])-chain PAR-PARP molecules are prepared as described in the methods and attached to the surface of assay wells. Purified PARG (15 mU/assay) is added to the wells in the presence of various concentrations of ATP and incubated for 45 minutes. The attached amount of polymers is determined in triplicate experiments (zero minute values for short chains were 0.5 OD, and 1.8 OD for long chain polymers). PARG (15 mU/assay) is incubated with various concentrations of 32P-PAR (long chain polymer) in the presence or absence of 6 mM of ATP for 45 minutes and the amount of liberated 32P-ADP-ribose is determined by TLC and liquid scintillation of the cut out portions of the plate located by autoradiography. Experiments are performed in triplicate.

[5] = target: T4, PARP-1 arginine-138 mutant (isoleucine, Zn2+ finger 2) (Homo sapiens, UniProt P09874, R138I); test: Enzymatic activity of arginine-138 (R138I) mutant PARP-1 with ATP; format: biochemical; conditions: arginine-138 mutated to isoleucine in Zn2+ finger 2; FIG. 1
T4 construct: made in house; host or cells: Sf9 (baculovirus)
From the text: as §1, §2

CNS disease = test: Treatment of a subject suffering from CNS disease; format: in vivo; conditions: orally or parenterally; after few days
Experimental: A subject suffering from CNS disease is treated with a therapeutically effective amount of compound of formula
(§3) where the compound is administered orally or parenterally.

inflammation = test: Treatment of a subject suffering from inflammation; format: in vivo; conditions: orally or parenterally; after few days
Experimental: A subject suffering from inflammation is treated with a therapeutically effective amount of compound of formula
as §3

solid tumor colon cancer = test: Treatment of a subject suffering from solid tumor colon cancer; format: in vivo; conditions: orally or parenterally; after few days
Experimental: A subject suffering from solid tumor colon cancer is treated with a therapeutically effective amount of compound of formula
as §3

T2 sequence (P09874 whole entry): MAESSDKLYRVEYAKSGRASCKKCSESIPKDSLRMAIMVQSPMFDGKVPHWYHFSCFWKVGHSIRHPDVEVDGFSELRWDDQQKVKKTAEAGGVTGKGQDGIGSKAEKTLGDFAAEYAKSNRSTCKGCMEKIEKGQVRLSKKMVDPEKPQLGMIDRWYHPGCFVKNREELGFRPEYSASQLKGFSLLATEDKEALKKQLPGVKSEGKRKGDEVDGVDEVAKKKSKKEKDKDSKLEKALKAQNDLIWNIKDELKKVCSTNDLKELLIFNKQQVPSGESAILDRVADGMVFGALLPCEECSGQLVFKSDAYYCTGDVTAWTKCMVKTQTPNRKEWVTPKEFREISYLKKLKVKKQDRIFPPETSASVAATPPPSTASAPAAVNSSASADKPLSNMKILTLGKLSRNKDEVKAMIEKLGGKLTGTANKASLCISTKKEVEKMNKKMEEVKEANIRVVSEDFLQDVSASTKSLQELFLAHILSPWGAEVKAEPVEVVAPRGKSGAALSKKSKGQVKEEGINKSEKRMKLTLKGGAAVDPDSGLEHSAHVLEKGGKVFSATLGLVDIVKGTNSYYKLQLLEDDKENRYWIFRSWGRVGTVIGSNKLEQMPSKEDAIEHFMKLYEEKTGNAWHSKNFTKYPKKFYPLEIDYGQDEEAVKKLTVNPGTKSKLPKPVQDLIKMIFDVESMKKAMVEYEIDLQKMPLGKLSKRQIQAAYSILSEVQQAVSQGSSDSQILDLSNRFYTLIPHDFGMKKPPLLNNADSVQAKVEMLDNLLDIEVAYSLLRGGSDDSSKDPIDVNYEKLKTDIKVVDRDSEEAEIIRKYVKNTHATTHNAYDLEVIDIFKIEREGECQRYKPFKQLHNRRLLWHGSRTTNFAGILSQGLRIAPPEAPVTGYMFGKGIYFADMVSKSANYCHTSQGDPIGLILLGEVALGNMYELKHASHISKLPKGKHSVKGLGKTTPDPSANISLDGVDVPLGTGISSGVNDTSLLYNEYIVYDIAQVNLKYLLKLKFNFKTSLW
T4 sequence (P09874 whole entry R138I): as the sequence (P09874 whole entry) above, with R138I counted along it
T1 sequence (P09874 whole entry R34G): as the sequence (P09874 whole entry) above, with R34G counted along it
T3 sequence (Q86W56 whole entry): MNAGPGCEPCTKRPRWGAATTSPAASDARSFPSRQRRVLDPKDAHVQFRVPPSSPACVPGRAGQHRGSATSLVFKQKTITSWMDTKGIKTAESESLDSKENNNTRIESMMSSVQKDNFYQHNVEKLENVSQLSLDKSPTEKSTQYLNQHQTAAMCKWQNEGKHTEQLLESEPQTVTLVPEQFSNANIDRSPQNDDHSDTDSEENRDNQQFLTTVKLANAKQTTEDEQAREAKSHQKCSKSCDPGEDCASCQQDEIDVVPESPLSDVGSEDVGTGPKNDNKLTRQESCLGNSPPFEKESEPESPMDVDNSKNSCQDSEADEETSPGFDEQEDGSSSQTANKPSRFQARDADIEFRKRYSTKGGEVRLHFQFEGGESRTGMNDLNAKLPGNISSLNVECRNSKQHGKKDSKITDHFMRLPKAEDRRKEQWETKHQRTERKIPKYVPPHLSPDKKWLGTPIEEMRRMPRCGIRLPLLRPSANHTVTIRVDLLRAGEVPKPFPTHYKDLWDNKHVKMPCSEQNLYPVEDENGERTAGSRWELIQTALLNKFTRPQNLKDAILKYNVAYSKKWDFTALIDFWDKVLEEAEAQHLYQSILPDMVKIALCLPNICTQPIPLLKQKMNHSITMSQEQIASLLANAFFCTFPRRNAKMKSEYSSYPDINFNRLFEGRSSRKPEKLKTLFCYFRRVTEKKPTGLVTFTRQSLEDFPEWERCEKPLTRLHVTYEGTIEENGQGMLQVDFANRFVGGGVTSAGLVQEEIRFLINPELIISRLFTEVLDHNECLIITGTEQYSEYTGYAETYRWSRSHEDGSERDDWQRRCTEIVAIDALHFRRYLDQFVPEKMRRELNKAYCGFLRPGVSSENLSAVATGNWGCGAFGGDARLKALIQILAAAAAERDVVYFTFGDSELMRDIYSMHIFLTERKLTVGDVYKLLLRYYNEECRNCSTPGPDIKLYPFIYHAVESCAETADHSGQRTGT

inhibitory action of ATP on PARP-1 enzymatic activity [1]: abolished
inhibition of PARP-1 activity in nuclei [2]: 80%
effect on PARG activity (decay of long PAR polymer) [3]: significantly accelerates
exonucleotidase activity of PARG (liberation of ADP-ribose) (purified PARG; 6 mM ATP, long chain polymers as substrate, FIG. 6): activation
effect of the mutation on the inhibitory action of ATP on PARP-1 [5]: negligible effect
Compound: Nc1ncnc2c1ncn2[C@@H]1O[C@H](COP(=O)(O)OP(=O)(O)OP(=O)(O)O)[C@@H](O)[C@H]1O [ATP]
response to DNA damage by BCNU as assayed by PARP-1 activity, with externally added ATP [4]: completely removed
acceleration of decay of longer ADP-ribose oligomers by PARG (purified PARG; long-chain PAR (average chain length 50 ADPR), PARG 15 mU/assay, FIG. 5): accelerated
acceleration of degradation of short ADP-ribose oligomers by PARG (purified PARG; short-chain PAR, PARG 15 mU/assay, FIG. 5): not accelerated

Compound: O=c1ccc2c(I)c(O)ccc2o1 [drawing 26]
symptoms of CNS disease (CNS disease): markedly reduced

Compound: O=c1ccc2c(I)c(O)ccc2o1 [drawing 20]
symptoms of inflammation (inflammation): markedly reduced

Compound: O=c1ccc2c(I)c(O)ccc2o1 [drawing 14]
symptoms of the cancer (solid tumor colon cancer): markedly reduced

Reference: patent US20090076122A1, “PARP Modulators and Treatment of Cancer” (BIPAR SCIENCES, INC., priority 2005, published 2009)
